Data from ChEMBL document CHEMBL3137667, “[Drug-induced liver injury; fourteenth updated edition of the bibliographic database of liver injuries and related drugs]” (Gastroenterol Clin Biol, 2004).

Columns and labels:
[1] = human
[2] = human, serum
[3] = human; remark: listed apart in the source
[4] = human; remark: listed apart in the source
[5] = human; remark: listed apart in the source
[6] = Highest frequency of moderate liver toxicity observed during clinical trials, expressed as a percentage. [column '% BIOL' in source]; details: human
[7] = human; remark: listed apart in the source
[8] = human, serum, 4383 h
[9] = human, serum; remark: listed apart in the source
[10] = Highest frequency of acute liver toxicity observed during clinical trials, expressed as a percentage. [column '% AIGUE' in source]; details: human
[11] = human; remark: listed apart in the source
[12] = human; remark: listed apart in the source
[13] = human; remark: listed apart in the source
[14] = human; remark: listed apart in the source
[15] = Times to onset, minimal and maximal, observed in the indexed observations. [column 'DELAI' in source]; details: human
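For Hepatotoxicity (association with vascular disease) in this document: count of indexed literature references reporting vascular liver injury in humans, e.g. peliosis hepatitis, hepatic veno-occlusive disease or Budd-Chiari syndrome.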
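For Hepatotoxicity (benign tumour) in this document: value is a count of indexed literature references citing a benign tumour confirmed by histopathology.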
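For Hepatotoxicity (choleostasis) in this document: human cholestatic liver injury, shown by histopathology or by peak ALT or AST elevation over alkaline phosphatase ratio below 2, value counts indexed literature reports.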
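For Hepatotoxicity (chronic liver disease) in this document: chronic liver injury confirmed by histopathology or persistently raised serum aminotransferase activity beyond 6 months, value given as the count of indexed literature references.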
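For Hepatotoxicity (cirrhosis) in this document: value is a count of indexed literature references reporting cirrhosis confirmed by histopathology.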
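For Hepatotoxicity (cytolytic) in this document: human cytolytic liver injury, shown by histopathology or by a ratio above 5 of peak ALT or AST elevation to alkaline phosphatase elevation, value counts indexed references.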
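For Hepatotoxicity (granulomatous hepatitis) in this document: value is a count of indexed literature references reporting granulomatous liver disease confirmed by histopathology.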
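For Hepatotoxicity (malignant tumour) in this document: malignant tumour confirmed by histopathology, value gives the count of indexed literature references reporting it.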
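For Hepatotoxicity (severe hepatitis) in this document: human clinical data: severe hepatitis, meaning potentially life-threatening liver failure or clinically observed cases, the value counts how many indexed literature references report it.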
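For Hepatotoxicity (steatosis) in this document: steatosis confirmed by histopathology, value is the count of indexed references.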

Row | SMILES | Hepatotoxicity (malignant tumour) [1] | Hepatotoxicity (moderate) [2] | Hepatotoxicity (severe hepatitis) ([3]; Liver) | Hepatotoxicity (association with vascular disease) [4] | Hepatotoxicity (choleostasis) [5] | Hepatotoxicity (moderate) ([6]; Liver) [%] | Hepatotoxicity (cirrhosis) [7] | Hepatotoxicity (chronic liver disease) [8] | Hepatotoxicity (acute) [9] | Hepatotoxicity (acute) ([10]; Liver) [%] | Hepatotoxicity (steatosis) [11] | Hepatotoxicity (granulomatous hepatitis) [12] | Hepatotoxicity (cytolytic) [13] | Hepatotoxicity (benign tumour) [14] | Hepatotoxicity (time to onset) [15] | Hepatotoxicity (severe hepatitis) [3] | Hepatotoxicity (moderate) [6] [%] | Hepatotoxicity (acute) [10] [%]
1 | CN(C)CCC(c1ccc(Cl)cc1)c1ccccn1.O=C(O)/C=C\C(=O)O (stereo not given) [CHLORPHENIRAMINE MALEATE] | 0 | 0 | 0 | 0 | 1 | 0 | 0 | 0 | 2 | 0 | 0 | 0 | 1 | 0 | 1 month | – | – | –
2 | CN(C)CC/C=C1/c2ccccc2Sc2ccc(Cl)cc21 [CHLORPROTHIXENE] | 0 | 0 | – | 0 | 1 | – | 0 | 0 | 1 | – | 0 | 0 | 0 | 0 | 1 week | 0 | 0 | 0
3 | CCOC(=O)[C@H](CCc1ccccc1)N[C@H]1CCCN2CCC[C@@H](C(=O)O)N2C1=O [CILAZAPRIL] | 0 | 1 | – | 0 | 0 | – | 0 | 0 | 0 | – | 0 | 0 | 0 | 0 | 2 months | 0 | 1.2 | 0
4 | C(=C\c1ccccc1)/CN1CCN(C(c2ccccc2)c2ccccc2)CC1 [CINNARIZINE] | 0 | 0 | – | 0 | 2 | – | 0 | 0 | 2 | – | 0 | 0 | 0 | 0 | 3 weeks - 7 weeks | 0 | 0 | 0
5 | COc1cc(N)c(Cl)cc1C(=O)NC1CCN(CCCOc2ccc(F)cc2)CC1OC (stereo not given) [CISAPRIDE] | 0 | 2 | – | 0 | 0 | – | 0 | 0 | 1 | – | 0 | 0 | 1 | 0 | 4 days | 0 | 0 | 0
6 | Nc1nc(Cl)nc2c1ncn2[C@H]1C[C@H](O)[C@@H](CO)O1 [CLADRIBINE] | 0 | 4 | – | 1 | 0 | – | 0 | 0 | 2 | – | 0 | 0 | 1 | 0 | 2 weeks - 6 months | 0 | 13 | 9.1
7 | CN1C(=O)CC(=O)N(c2ccccc2)c2cc(Cl)ccc21 [CLOBAZAM] | 0 | 1 | – | 0 | 0 | – | 0 | 0 | 0 | – | 0 | 0 | 0 | 0 | 1 week | 0 | 2.1 | 0
8 | CC(Cc1ccccc1)NCc1ccccc1Cl (stereo not given) [CLOBENZOREX] | 0 | 0 | – | 0 | 0 | – | 0 | 0 | 1 | – | 0 | 0 | 1 | 0 | 2 weeks | 0 | 0 | 0
9 | CCN(CC)CCOc1ccc(C(=C(Cl)c2ccccc2)c2ccccc2)cc1 [CLOMIPHENE] | 1 | 1 | – | 0 | 1 | – | 0 | 0 | 2 | – | 0 | 0 | 1 | 1 | 2 weeks - 8 years | 0 | 0 | 0
10 | Clc1ccccc1C(c1ccccc1)(c1ccccc1)n1ccnc1 [CLOTRIMAZOLE] | 0 | 8 | – | 0 | 0 | – | 0 | 0 | 0 | – | 0 | 0 | 0 | 0 | 17 days | 0 | 40 | 0
11 | C1CC1 [CYCLOPROPANE] | 0 | 0 | – | 0 | 0 | – | 0 | 0 | 3 | – | 0 | 0 | 3 | 0 | 1 day - 2 weeks | 2 | 0 | 0
